Data as given in US20040228948A1, “Increasing the concentration of conjugated linoleic acid isomers in the milk fat and/or tissue fat of ruminants” (priority 2003, published 2004).

Key:
dairy cows = settings: 24 mg/kg of dietary dry matter, 28-day period; increase from 0.8%; cited from earlier work
lactating Holstein cows = test: Example 2 feeding trial: milk fatty acid composition; assay type: in vivo; settings: FIGS. 4 and 5, monensin with safflower oil
Description: Twenty-eight primiparous and 34 multiparous lactating Holstein cows were used in a randomized complete block design with repeated measures. Animals were blocked according to parity and DIM. Cows within each block were then randomly assigned to one of six treatment diets: (1) Control diet (CTL); (2) Control diet including safflower oil supplemented at 6% of DM (SAFF); (3) Control diet including safflower oil supplemented at 6% of DM plus Vitamin E supplemented at 150 IU/kg DM (SAFF/E); (4) Control diet including safflower oil supplemented at 6% of DM plus monensin supplemented at 24 ppm of DM (SAFF/M); (5) Control diet including safflower oil supplemented at 6% of DM plus Vitamin E supplemented at 150 IU/kg DM plus monensin supplemented at 24 ppm of DM (SAFF/M/E); (6) Control diet including flaxseed oil supplemented at 6% of DM plus Vitamin E supplemented at 150 IU/kg DM (FLAX/E). […] Feed intake was recorded daily and adjusted to maintain 5 to 10% orts. […] Milk yield was recorded daily. […] A portion of milk from each cow was preserved with potassium dichromate and analyzed for protein, fat, lactose, and somatic cell count at the Alberta Agriculture, Food and Rural Development Central Milk Testing Laboratory (Edmonton, Alberta, Canada). […] The data were analyzed as a randomized complete block design with repeated measures using MIXED procedure of SAS version 8:3 (SAS Institute, Cary, N.C.).

mouse DMBA model = settings: synthetically prepared mixture of the CLA isomers; cited from earlier work
[1] = test system: DMBA-induced mammary tumors in rats; settings: 0.05 g CLA/100 g of diet; cited from earlier work

Row | Compound | CLA in milk fat (dairy cows) | persistence of effect on CLA and trans 18:1 (lactating Holstein cows) | papillomas compared to the control mice (mouse DMBA model) | number of mammary tumors [1]
1 | CC[C@@]1([C@@H]2O[C@@H]([C@H]3O[C@@](O)(CO)[C@H](C)C[C@@H]3C)C[C@@H]2C)CC[C@H]([C@]2(C)CC[C@]3(C[C@H](O)[C@@H](C)[C@@H]([C@@H](C)[C@@H](OC)[C@H](C)C(=O)O)O3)O2)O1 [monensin] | 1.3 % of milk fat | consistent across the two-month period | – | –
2 | Conjugated linoleic acid [CLA] | – | – | about one-half | reduction
